Experimental data published in US20210161894A1, “Compositions and Methods for Modulating Liver Endothelial Cell Fenestrations” (priority 2017, published 2021).

Experiments:
[1] = tested on: fenestrations; conditions: young mice; cited from earlier work
[2] = tested on: isolated LSECs (liver sinusoidal endothelial cells); assay: SEM of fenestrations in isolated LSECs from young and old mice after 30 min drug treatment (second Example 7); format: cell-based; conditions: for Diameter / Frequency / Porosity: 30 min
[3] = tested on: fenestrations; conditions: young (7 month) and old (24 month) mice; cited from earlier work
[4] = tested on: LSEC fenestrations; assay: SEM of LSEC fenestrations after drug treatments (Example 2, FIGS. 1-6); format: cell-based, mice
Outline: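 Liver cells from young (3-4) and old (20-24 months) C57B16 mice, n=3 each, incubated 30 mins at 37° C, 5% CO2 in RPMI with or without drug; livers perfusion-fixed in 1% glutaraldehyde/4% para-formaldehyde. Blinded SEM at 10,000×; values are mean±SD of 8 images, 616-3312 fenestrations per treatment.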

COc1cc(CC(C)N)c(OC)cc1I (stereo not shown) [DOI, 2,5-Dimethoxy-4-iodoamphetamine]
fenestration porosity and diameter (previously reported) [1]: increase fenestration porosity in young mice without any significant effects on fenestration diameter
Change in Frequency, Old ([2]; old mice, 0.1 μg/ml): ↑ (ns)
Diameter ([2]; old mice, 0.1 μg/ml): 135.27 ± 29.71 nm
Frequency ([2]; old mice, 0.1 μg/ml): 3.06 ± 1.00 no/area
Porosity ([2]; old mice, 0.1 μg/ml): 4.44 ± 1.07 %
Diameter ([2]; old mice, 1 μg/ml): 155.28 ± 15.33 nm
Frequency ([2]; old mice, 1 μg/ml): 0.67 ± 0.31 no/area
Porosity ([2]; old mice, 1 μg/ml): 1.31 ± 0.47%
effect on porosity and fenestration frequency (summary in words) ([2]; young and old LSECs): LSECs from old mice only were responsive
Diameter ([2]; young mice, 0.1 μg/ml): 133.57 ± 9.78 nm
Frequency ([2]; young mice, 0.1 μg/ml): 3.40 ± 1.56 no/area
Porosity ([2]; young mice, 0.1 μg/ml): 4.91 ± 2.02%
Diameter ([2]; young mice, 1 μg/ml): 135.64 ± 21.21 nm
Frequency ([2]; young mice, 1 μg/ml): 0.83 ± 0.75 no/area
Porosity ([2]; young mice, 1 μg/ml): 1.45 ± 1.27%
fenestrations after in vivo administration [3]: increased fenestrations only in young (7 month) but not old (24 month) mice
change in fenestration porosity ([4]; old mice, Cytochalasin D 0.5 μg/ml, DOI 0.1 μg/ml, 7KC 9 μM, Amlodipine 20 ng/ml): increased porosity
change in fenestration frequency ([4]; old mice, Cytochalasin D 0.5 μg/ml, DOI 0.1 μg/ml, 7KC 9 μM, Bosentan 0.1 μM, Sildenafil 300 ng/ml, Amlodipine 20 ng/ml): increased
sieve plates and fenestration density on SEM images ([4]; young and old mice): maintained sieve plates and increased fenestration density
